# From patent US20030022821A1, “Bioactive peptides” (priority 1998, published 2003)
# Where two headings read alike, the source gives them in different places. Square brackets hold non-standard residues; d marks the D form. Ends that are not written are not given here. Peptide text beside a SMILES is read from it. * marks the point of attachment. Trp(2-Pmc) = Cc1c(C)c(S(=O)(=O)c2[nH]c3ccccc3c2C[C@H](N)C(=O)O)c(C)c2c1OC(C)(C)CC2; Acm = CC(=O)NC*
# How the values were obtained:
# [1] = test system: Escherichia coli ATCC 25922; type: cell-based
# Procedure: (§1) The bacterial strains used were: Escherichia coli ATCC 25922 and Staphylococcus aureus ATCC 25923. All strains were stored at −70° C. The bacteria were grown in 2% Bacto Peptone water (Difco 1807-17-4). All tests were performed with bacteria in mid-logarithmic growth phase. Determination of the minimum inhibitory concentration (MIC) of the peptides for bacterial strains were performed in 1% Bacto Peptone water. A standard microdilution technique with an inoculum of 2×10^6 CFU/ml was used. All assays were performed in triplets. Since the peptides are positively charged and therefore could adhere to the plastic wells, we controlled the actual concentration of the peptides in the solution by HPLC. There was no difference between the concentration of the peptides before or after adding the solution to the plastic wells.
# [2] = test system: Staphylococcus aureus ATCC 25923; type: cell-based
# Procedure: as §1
Compound,MIC E. coli ([1]; ATCC 25922) [µg/mL],MIC S. aureus ([2]; ATCC 25923) [µg/mL],further results
CSCC[C@H](NC(=O)[C@H](CCCNC(=N)N)NC(=O)[C@H](Cc1c[nH]c2ccccc12)NC(=O)[C@H](CCC(N)=O)NC(=O)[C@H](Cc1c[nH]c2ccccc12)NC(=O)[C@H](CCCNC(=N)N)NC(=O)[C@H](CCCNC(=N)N)NC(=O)[C@H](CSCNC(C)=O)NC(=O)[C@@H](N)CCCCN)C(=O)N[C@@H](CCCCN)C(=O)N[C@@H](CCCCN)C(=O)N[C@@H](CC(C)C)C(=O)NCC(=O)N[C@@H](C)C(=O)O [LFB 18-31] (H-KC(Acm)RRWQWRMKKLGA-OH; N-terminus assumed),,,"MIC E. coli ATCC 25922 ([1]; ATCC 25922): 80 µg/mL; MIC E. coli ATCC 25922 ([1]; Table 1, value in brackets): 43 µM; MIC E. coli ([1]; Table 11): 80 µg/mL; MIC S. aureus ATCC 25923 ([2]; ATCC 25923): 200 µg/mL; MIC S. aureus ATCC 25923 ([2]; Table 1, value in brackets): 108 µM; MIC S. aureus ([2]; Table 11): 200 µg/mL"
CSCC[C@H](NC(=O)[C@H](CCCNC(=N)N)NC(=O)[C@H](Cc1c[nH]c2ccccc12)NC(=O)[C@H](CCC(N)=O)NC(=O)[C@H](Cc1c[nH]c2ccccc12)NC(=O)[C@H](CCCNC(=N)N)NC(=O)[C@H](CCCNC(=N)N)NC(=O)[C@@H](N)CSCNC(C)=O)C(=O)N[C@@H](CCCCN)C(=O)N[C@@H](CCCCN)C(=O)N[C@@H](CC(C)C)C(=O)NCC(=O)N[C@@H](C)C(=O)O [LFB 19-31] (H-C(Acm)RRWQWRMKKLGA-OH; N-terminus assumed),200,>250,"MIC E. coli ATCC 25922 ([1]; ATCC 25922): 200 µg/mL; MIC E. coli ATCC 25922 ([1]; Table 1, value in brackets): 120 µM; MIC S. aureus ATCC 25923 ([2]; ATCC 25923): > 250 µg/mL; MIC S. aureus ATCC 25923 ([2]; Table 1, value in brackets): > 150 µM"
CSCC[C@H](NC(=O)[C@H](CCCNC(=N)N)NC(=O)[C@H](Cc1c[nH]c2ccccc12)NC(=O)[C@H](CCC(N)=O)NC(=O)[C@H](Cc1c[nH]c2ccccc12)NC(=O)[C@H](CCCNC(=N)N)NC(=O)[C@H](CCCNC(=N)N)NC(=O)[C@H](CSCNC(C)=O)NC(=O)[C@H](CCCCN)NC(=O)[C@H](C)N)C(=O)N[C@@H](CCCCN)C(=O)N[C@@H](CCCCN)C(=O)N[C@@H](CC(C)C)C(=O)NCC(=O)N[C@@H](C)C(=O)O [LFB A1] (H-AKC(Acm)RRWQWRMKKLGA-OH),70,>200,
CSCC[C@H](NC(=O)[C@H](CCCNC(=N)N)NC(=O)[C@H](Cc1c[nH]c2ccccc12)NC(=O)[C@H](CCC(N)=O)NC(=O)[C@H](Cc1c[nH]c2ccccc12)NC(=O)[C@H](CCCNC(=N)N)NC(=O)[C@H](CCCNC(=N)N)NC(=O)[C@H](CSCNC(C)=O)NC(=O)[C@H](C)NC(=O)[C@@H](N)Cc1ccccc1)C(=O)N[C@@H](CCCCN)C(=O)N[C@@H](CCCCN)C(=O)N[C@@H](CC(C)C)C(=O)NCC(=O)N[C@@H](C)C(=O)O [LFB A2] (H-FAC(Acm)RRWQWRMKKLGA-OH),80,>200,
CSCC[C@H](NC(=O)[C@H](CCCNC(=N)N)NC(=O)[C@H](Cc1c[nH]c2ccccc12)NC(=O)[C@H](CCC(N)=O)NC(=O)[C@H](Cc1c[nH]c2ccccc12)NC(=O)[C@H](CCCNC(=N)N)NC(=O)[C@H](C)NC(=O)[C@H](CSCNC(C)=O)NC(=O)[C@H](CCCCN)NC(=O)[C@@H](N)Cc1ccccc1)C(=O)N[C@@H](CCCCN)C(=O)N[C@@H](CCCCN)C(=O)N[C@@H](CC(C)C)C(=O)NCC(=O)N[C@@H](C)C(=O)O [LFB A4] (H-FKC(Acm)ARWQWRMKKLGA-OH),,>200,
CSCC[C@H](NC(=O)[C@H](CCCNC(=N)N)NC(=O)[C@H](Cc1c[nH]c2ccccc12)NC(=O)[C@H](CCC(N)=O)NC(=O)[C@H](Cc1c[nH]c2ccccc12)NC(=O)[C@H](C)NC(=O)[C@H](CCCNC(=N)N)NC(=O)[C@H](CSCNC(C)=O)NC(=O)[C@H](CCCCN)NC(=O)[C@@H](N)Cc1ccccc1)C(=O)N[C@@H](CCCCN)C(=O)N[C@@H](CCCCN)C(=O)N[C@@H](CC(C)C)C(=O)NCC(=O)N[C@@H](C)C(=O)O [LFB A5] (H-FKC(Acm)RAWQWRMKKLGA-OH),120,>200,
CSCC[C@H](NC(=O)[C@H](CCCNC(=N)N)NC(=O)[C@H](Cc1c(S(=O)(=O)c2c(C)c(C)c3c(c2C)CCC(C)(C)O3)[nH]c2ccccc12)NC(=O)[C@H](CCC(N)=O)NC(=O)[C@H](C)NC(=O)[C@H](CCCNC(=N)N)NC(=O)[C@H](CCCNC(=N)N)NC(=O)[C@H](CSCNC(C)=O)NC(=O)[C@H](CCCCN)NC(=O)[C@@H](N)Cc1ccccc1)C(=O)N[C@@H](CCCCN)C(=O)N[C@@H](CCCCN)C(=O)N[C@@H](CC(C)C)C(=O)NCC(=O)N[C@@H](C)C(=O)O [LFB A6 PMC] (H-FKC(Acm)RRAQ[Trp(2-Pmc)]RMKKLGA-OH),25,17.5,
CSCC[C@H](NC(=O)[C@H](C)NC(=O)[C@H](Cc1c[nH]c2ccccc12)NC(=O)[C@H](CCC(N)=O)NC(=O)[C@H](Cc1c[nH]c2ccccc12)NC(=O)[C@H](CCCNC(=N)N)NC(=O)[C@H](CCCNC(=N)N)NC(=O)[C@H](CSCNC(C)=O)NC(=O)[C@H](CCCCN)NC(=O)[C@@H](N)Cc1ccccc1)C(=O)N[C@@H](CCCCN)C(=O)N[C@@H](CCCCN)C(=O)N[C@@H](CC(C)C)C(=O)NCC(=O)N[C@@H](C)C(=O)O [LFB A9] (H-FKC(Acm)RRWQWAMKKLGA-OH),55,>200,
CC(=O)NCSC[C@H](NC(=O)[C@H](CCCCN)NC(=O)[C@@H](N)Cc1ccccc1)C(=O)N[C@@H](CCCNC(=N)N)C(=O)N[C@@H](CCCNC(=N)N)C(=O)N[C@@H](Cc1c[nH]c2ccccc12)C(=O)N[C@@H](CCC(N)=O)C(=O)N[C@@H](Cc1c[nH]c2ccccc12)C(=O)N[C@@H](CCCNC(=N)N)C(=O)N[C@@H](C)C(=O)N[C@@H](CCCCN)C(=O)N[C@@H](CCCCN)C(=O)N[C@@H](CC(C)C)C(=O)NCC(=O)N[C@@H](C)C(=O)O [LFB A10] (H-FKC(Acm)RRWQWRAKKLGA-OH),140,>200,
CSCC[C@H](NC(=O)[C@H](CCCNC(=N)N)NC(=O)[C@H](Cc1c[nH]c2ccccc12)NC(=O)[C@H](CCC(N)=O)NC(=O)[C@H](Cc1c[nH]c2ccccc12)NC(=O)[C@H](CCCNC(=N)N)NC(=O)[C@H](CCCNC(=N)N)NC(=O)[C@H](CSCNC(C)=O)NC(=O)[C@H](CCCCN)NC(=O)[C@@H](N)Cc1ccccc1)C(=O)N[C@@H](C)C(=O)N[C@@H](CCCCN)C(=O)N[C@@H](CC(C)C)C(=O)NCC(=O)N[C@@H](C)C(=O)O [LFB A11] (H-FKC(Acm)RRWQWRMAKLGA-OH),70,>200,
CSCC[C@H](NC(=O)[C@H](CCCNC(=N)N)NC(=O)[C@H](Cc1c[nH]c2ccccc12)NC(=O)[C@H](CCC(N)=O)NC(=O)[C@H](Cc1c[nH]c2ccccc12)NC(=O)[C@H](CCCNC(=N)N)NC(=O)[C@H](CCCNC(=N)N)NC(=O)[C@H](CSCNC(C)=O)NC(=O)[C@H](CCCCN)NC(=O)[C@@H](N)Cc1ccccc1)C(=O)N[C@@H](CCCCN)C(=O)N[C@@H](C)C(=O)N[C@@H](CC(C)C)C(=O)NCC(=O)N[C@@H](C)C(=O)O [LFB A12] (H-FKC(Acm)RRWQWRMKALGA-OH),50,>200,
CSCC[C@H](NC(=O)[C@H](CCCNC(=N)N)NC(=O)[C@H](Cc1c[nH]c2ccccc12)NC(=O)[C@H](CCC(N)=O)NC(=O)[C@H](Cc1c[nH]c2ccccc12)NC(=O)[C@H](CCCNC(=N)N)NC(=O)[C@H](CCCNC(=N)N)NC(=O)[C@H](CSCNC(C)=O)NC(=O)[C@H](CCCCN)NC(=O)[C@@H](N)Cc1ccccc1)C(=O)N[C@@H](CCCCN)C(=O)N[C@@H](CCCCN)C(=O)N[C@@H](C)C(=O)NCC(=O)N[C@@H](C)C(=O)O [LFB A13] (H-FKC(Acm)RRWQWRMKKAGA-OH),50,>200,
CSCC[C@H](NC(=O)[C@H](CCCNC(=N)N)NC(=O)[C@H](Cc1c[nH]c2ccccc12)NC(=O)[C@H](CCC(N)=O)NC(=O)[C@H](Cc1ccc(-c2ccccc2)cc1)NC(=O)[C@H](CCCNC(=N)N)NC(=O)[C@H](CCCNC(=N)N)NC(=O)[C@H](CSCNC(C)=O)NC(=O)[C@H](CCCCN)NC(=O)[C@@H](N)Cc1ccccc1)C(=O)N[C@@H](CCCCN)C(=O)N[C@@H](CCCCN)C(=O)N[C@@H](CC(C)C)C(=O)NCC(=O)N[C@@H](C)C(=O)O [LFB Bip6],25,25,
"CSCC[C@H](NC(=O)[C@H](CCCNC(=N)N)NC(=O)[C@H](CCCNC(=N)N)NC(=O)[C@H](CCC(N)=O)NC(=O)[C@H](Cc1c[nH]c2ccccc12)NC(=O)[C@H](CCC(N)=O)NC(=O)[C@H](Cc1ccc(O)cc1)NC(=O)[C@H](CSCNC(C)=O)NC(=O)[C@H](CCCCN)NC(=O)[C@@H](N)CO)C(=O)N[C@@H](CCCNC(=N)N)C(=O)N[C@@H](CCCCN)C(=O)N[C@@H](CC(C)C)C(=O)NCC(=O)N[C@@H](C)C(=O)O [Native LFG, SKCYQWQRRMRKLGA] (H-SKC(Acm)YQWQRRMRKLGA-OH; N-terminus assumed)",,,MIC E. coli ([1]; Table 4): 750 µg/mL
"RWWRYWR-NH2 [LFM 18-24 R1, 7 W2,3, 6Y5NH2, ARG-TRP-TRP-ARG-TYR-TRP-ARG-CONH2]",10,,"MIC E. coli ([1]; Table 14, peptides with a proportion of D amino acids): 10 µg/mL"
